{"source": "PubChem BioAssay AID1963960", "about": "(Molecular Pharmacology Branch, DTP, NCI, 2024)", "system": "MDA-MB-468 spheroids with HUVEC/MSC, viability", "experiment": "Anticancer human tumor MDA-MB-468 cell line growth inhibition [PI3K];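 for all read-outs here: spheroids exposed to agents for seven days before readout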;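 for viability, T/C: 100% = DMSO vehicle control viability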", "details": "for pIC50: curve of first compound; for viability, T/C: stronger effect = lower value", "method_in_brief": "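Spheroid viability read-out. Co-cultures contained the tumor line plus HUVEC and human MSCs. Each agent was paired with a PI3K inhibitor (inavolisib, alpelisib, duvelisib, copanlisib) across half-log dilutions starting at clinical Cmax, or at 10 microM when Cmax was unknown.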", "key": {"[1]": {"details": "second compound 0.00316 µM, first compound 0.0316 µM"}, "[2]": {"details": "second compound 0.00316 µM, first compound 0.1 µM"}, "[3]": {"details": "second compound 0.01 µM, first compound 0.0316 µM"}, "[4]": {"details": "second compound 0.01 µM, first compound 0.1 µM"}, "[5]": {"details": "second compound 0.0316 µM, first compound 0.0316 µM"}, "[6]": {"details": "second compound 0.0316 µM, first compound 0.1 µM"}, "[7]": {"details": "second compound 0.1 µM, first compound 0.0316 µM"}, "[8]": {"details": "second compound 0.1 µM, first compound 0.1 µM"}, "[9]": {"details": "second compound 0.316 µM, first compound 0.0316 µM"}, "[10]": {"details": "second compound 0.316 µM, first compound 0.1 µM"}, "[11]": {"details": "second compound 1 µM, first compound 0.0316 µM"}, "[12]": {"details": "second compound 1 µM, first compound 0.1 µM"}}, "note": "pIC50: −log10 of the molar value."}
{"smiles": "C=CC(=O)N1CCN(c2nc(=O)n(-c3c(C)ccnc3C(C)C)c3nc(-c4c(O)cccc4F)c(F)cc23)C(C)C1", "note": "(centres undefined) + CC(Nc1ccc2c(c1)OCCn1cc(N3C(=O)OCC3C(F)F)nc1-2)C(N)=O", "values": [{"measurement": "pIC50", "setting": "second compound 0.00316 µM", "result": "< 5.00"}, {"measurement": "pIC50", "setting": "second compound 0.01 µM", "result": "< 5.00"}, {"measurement": "pIC50", "setting": "second compound 0.0316 µM", "result": "< 5.00"}, {"measurement": "pIC50", "setting": "second compound 0.1 µM", "result": "< 5.00"}, {"measurement": "pIC50", "setting": "second compound 0.316 µM", "result": "< 5.00"}, {"measurement": "pIC50", "setting": "second compound 1 µM", "result": 5.10}, {"measurement": "viability, T/C", "setting": "[1]", "result": 85.4, "unit": "%"}, {"measurement": "viability, T/C", "setting": "[2]", "result": 92.4, "unit": "%"}, {"measurement": "viability, T/C", "setting": "second compound 0.00316 µM, first compound 0.316 µM", "result": 98.7, "unit": "%"}, {"measurement": "viability, T/C", "setting": "second compound 0.00316 µM, first compound 1 µM", "result": 107, "unit": "%"}, {"measurement": "viability, T/C", "setting": "second compound 0.00316 µM, first compound 3.16 µM", "result": 98.3, "unit": "%"}, {"measurement": "viability, T/C", "setting": "second compound 0.00316 µM, first compound 10 µM", "result": 82.5, "unit": "%"}, {"measurement": "viability, T/C", "setting": "[3]", "result": 91.3, "unit": "%"}, {"measurement": "viability, T/C", "setting": "[4]", "result": 101, "unit": "%"}, {"measurement": "viability, T/C", "setting": "second compound 0.01 µM, first compound 0.316 µM", "result": 82.3, "unit": "%"}, {"measurement": "viability, T/C", "setting": "second compound 0.01 µM, first compound 1 µM", "result": 101, "unit": "%"}, {"measurement": "viability, T/C", "setting": "second compound 0.01 µM, first compound 3.16 µM", "result": 97.3, "unit": "%"}, {"measurement": "viability, T/C", "setting": "second compound 0.01 µM, first compound 10 µM", "result": 73, "unit": "%"}, {"measurement": "viability, T/C", "setting": "[5]", "result": 92.5, "unit": "%"}, {"measurement": "viability, T/C", "setting": "[6]", "result": 95.3, "unit": "%"}, {"measurement": "viability, T/C", "setting": "second compound 0.0316 µM, first compound 0.316 µM", "result": 87.1, "unit": "%"}, {"measurement": "viability, T/C", "setting": "second compound 0.0316 µM, first compound 1 µM", "result": 86.8, "unit": "%"}, {"measurement": "viability, T/C", "setting": "second compound 0.0316 µM, first compound 3.16 µM", "result": 96.4, "unit": "%"}, {"measurement": "viability, T/C", "setting": "second compound 0.0316 µM, first compound 10 µM", "result": 66.1, "unit": "%"}, {"measurement": "viability, T/C", "setting": "[7]", "result": 104, "unit": "%"}, {"measurement": "viability, T/C", "setting": "[8]", "result": 82.5, "unit": "%"}, {"measurement": "viability, T/C", "setting": "second compound 0.1 µM, first compound 0.316 µM", "result": 87.4, "unit": "%"}, {"measurement": "viability, T/C", "setting": "second compound 0.1 µM, first compound 1 µM", "result": 102, "unit": "%"}, {"measurement": "viability, T/C", "setting": "second compound 0.1 µM, first compound 3.16 µM", "result": 86, "unit": "%"}, {"measurement": "viability, T/C", "setting": "second compound 0.1 µM, first compound 10 µM", "result": 59.6, "unit": "%"}, {"measurement": "viability, T/C", "setting": "[9]", "result": 84.5, "unit": "%"}, {"measurement": "viability, T/C", "setting": "[10]", "result": 66.2, "unit": "%"}, {"measurement": "viability, T/C", "setting": "second compound 0.316 µM, first compound 0.316 µM", "result": 76.4, "unit": "%"}, {"measurement": "viability, T/C", "setting": "second compound 0.316 µM, first compound 1 µM", "result": 91.4, "unit": "%"}, {"measurement": "viability, T/C", "setting": "second compound 0.316 µM, first compound 3.16 µM", "result": 93.6, "unit": "%"}, {"measurement": "viability, T/C", "setting": "second compound 0.316 µM, first compound 10 µM", "result": 55.9, "unit": "%"}, {"measurement": "viability, T/C", "setting": "[11]", "result": 82.6, "unit": "%"}, {"measurement": "viability, T/C", "setting": "[12]", "result": 93.9, "unit": "%"}, {"measurement": "viability, T/C", "setting": "second compound 1 µM, first compound 0.316 µM", "result": 77.8, "unit": "%"}, {"measurement": "viability, T/C", "setting": "second compound 1 µM, first compound 1 µM", "result": 84.7, "unit": "%"}, {"measurement": "viability, T/C", "setting": "second compound 1 µM, first compound 3.16 µM", "result": 64, "unit": "%"}, {"measurement": "viability, T/C", "setting": "second compound 1 µM, first compound 10 µM", "result": 46.3, "unit": "%"}]}
{"smiles": "CCCS(=O)(=O)Nc1ccc(F)c(C(=O)c2c[nH]c3ncc(-c4ccc(Cl)cc4)cc23)c1F", "values": [{"measurement": "viability, T/C", "setting": "compound 0.316 µM", "result": "107% [middle of 4 runs]"}, {"measurement": "viability, T/C", "setting": "compound 1 µM", "result": "97.7% [middle of 4 runs]"}, {"measurement": "viability, T/C", "setting": "compound 3.16 µM", "result": "78.9% [middle of 4 runs]"}, {"measurement": "viability, T/C", "setting": "compound 10 µM", "result": "16.4% [middle of 4 runs]"}, {"measurement": "IC50", "setting": "curve of compound", "result": "5.5 µM [middle of 4 runs]"}]}
{"smiles": "Cn1ncnc1[C@H]1c2n[nH]c(=O)c3cc(F)cc(c23)N[C@@H]1c1ccc(F)cc1", "note": "+ CC(Nc1ccc2c(c1)OCCn1cc(N3C(=O)OCC3C(F)F)nc1-2)C(N)=O", "values": [{"measurement": "pIC50", "setting": "second compound 0.00316 µM", "result": "< 7.00"}, {"measurement": "pIC50", "setting": "second compound 0.01 µM", "result": "< 7.00"}, {"measurement": "pIC50", "setting": "second compound 0.0316 µM", "result": "< 7.00"}, {"measurement": "pIC50", "setting": "second compound 0.1 µM", "result": 7.06}, {"measurement": "pIC50", "setting": "second compound 0.316 µM", "result": 7.37}, {"measurement": "pIC50", "setting": "second compound 1 µM", "result": 7.29}, {"measurement": "viability, T/C", "setting": "second compound 0.00316 µM, first compound 0.000316 µM", "result": 93.1, "unit": "%"}, {"measurement": "viability, T/C", "setting": "second compound 0.00316 µM, first compound 0.001 µM", "result": 87.6, "unit": "%"}, {"measurement": "viability, T/C", "setting": "second compound 0.00316 µM, first compound 0.00316 µM", "result": 87.3, "unit": "%"}, {"measurement": "viability, T/C", "setting": "second compound 0.00316 µM, first compound 0.01 µM", "result": 96.8, "unit": "%"}, {"measurement": "viability, T/C", "setting": "[1]", "result": 72.2, "unit": "%"}, {"measurement": "viability, T/C", "setting": "[2]", "result": 55.4, "unit": "%"}, {"measurement": "viability, T/C", "setting": "second compound 0.01 µM, first compound 0.000316 µM", "result": 90, "unit": "%"}, {"measurement": "viability, T/C", "setting": "second compound 0.01 µM, first compound 0.001 µM", "result": 99.3, "unit": "%"}, {"measurement": "viability, T/C", "setting": "second compound 0.01 µM, first compound 0.00316 µM", "result": 81, "unit": "%"}, {"measurement": "viability, T/C", "setting": "second compound 0.01 µM, first compound 0.01 µM", "result": 85.6, "unit": "%"}, {"measurement": "viability, T/C", "setting": "[3]", "result": 76.3, "unit": "%"}, {"measurement": "viability, T/C", "setting": "[4]", "result": 56.5, "unit": "%"}, {"measurement": "viability, T/C", "setting": "second compound 0.0316 µM, first compound 0.000316 µM", "result": 107, "unit": "%"}, {"measurement": "viability, T/C", "setting": "second compound 0.0316 µM, first compound 0.001 µM", "result": 88.9, "unit": "%"}, {"measurement": "viability, T/C", "setting": "second compound 0.0316 µM, first compound 0.00316 µM", "result": 83, "unit": "%"}, {"measurement": "viability, T/C", "setting": "second compound 0.0316 µM, first compound 0.01 µM", "result": 83.5, "unit": "%"}, {"measurement": "viability, T/C", "setting": "[5]", "result": 74.5, "unit": "%"}, {"measurement": "viability, T/C", "setting": "[6]", "result": 47.3, "unit": "%"}, {"measurement": "viability, T/C", "setting": "second compound 0.1 µM, first compound 0.000316 µM", "result": 99.5, "unit": "%"}, {"measurement": "viability, T/C", "setting": "second compound 0.1 µM, first compound 0.001 µM", "result": 77.4, "unit": "%"}, {"measurement": "viability, T/C", "setting": "second compound 0.1 µM, first compound 0.00316 µM", "result": 72.4, "unit": "%"}, {"measurement": "viability, T/C", "setting": "second compound 0.1 µM, first compound 0.01 µM", "result": 80.2, "unit": "%"}, {"measurement": "viability, T/C", "setting": "[7]", "result": 75.6, "unit": "%"}, {"measurement": "viability, T/C", "setting": "[8]", "result": 45.5, "unit": "%"}, {"measurement": "viability, T/C", "setting": "second compound 0.316 µM, first compound 0.000316 µM", "result": 93.4, "unit": "%"}, {"measurement": "viability, T/C", "setting": "second compound 0.316 µM, first compound 0.001 µM", "result": 73.6, "unit": "%"}, {"measurement": "viability, T/C", "setting": "second compound 0.316 µM, first compound 0.00316 µM", "result": 73.9, "unit": "%"}, {"measurement": "viability, T/C", "setting": "second compound 0.316 µM, first compound 0.01 µM", "result": 67.5, "unit": "%"}, {"measurement": "viability, T/C", "setting": "[9]", "result": 52.4, "unit": "%"}, {"measurement": "viability, T/C", "setting": "[10]", "result": 40.6, "unit": "%"}, {"measurement": "viability, T/C", "setting": "second compound 1 µM, first compound 0.000316 µM", "result": 73.7, "unit": "%"}, {"measurement": "viability, T/C", "setting": "second compound 1 µM, first compound 0.001 µM", "result": 73.4, "unit": "%"}, {"measurement": "viability, T/C", "setting": "second compound 1 µM, first compound 0.00316 µM", "result": 68.7, "unit": "%"}, {"measurement": "viability, T/C", "setting": "second compound 1 µM, first compound 0.01 µM", "result": 67, "unit": "%"}, {"measurement": "viability, T/C", "setting": "[11]", "result": 56, "unit": "%"}, {"measurement": "viability, T/C", "setting": "[12]", "result": 41.3, "unit": "%"}]}
